Tested on: panel of cancer cell lines
Assay: Cell viability (CellTiter-Glo) dose-response across cancer cell line panel;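 for EC50: after 72 h compound incubation with CellTiter-Glo ATP readout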
Type: cell-based, human
Settings: for EC50: Homo sapiens
Source text: Next, we explored the effect of CSN5 inhibition on the viability of cancer cells. To obtain a comprehensive picture, we generated dose–response curves with a CSN5 inhibitor across more than 500 cancer cell lines in a previously described standardized setting[47] (Supplementary Data 1).
A standardized CellTiter-Glo Assay (Promega #G7570) based on the quantification of ATP was applied according to the manufacturer's protocol to measure the amount of viable cells in culture. In brief, cells were seeded into 384-well plates at optimal density for each cell line. After 4 h, compounds were added at different concentrations in growth medium and incubated for another 72 h in a humidifying chamber at 37 °C and 5% CO2. […] EC50 values were calculated from the plot of percentage of inhibition versus inhibitor concentration using the nonlinear regression analysis software Origin 7.5SR6 (OriginLab Corp.).

Which results are given for `COCc1ccccc1NCc1ccc([C@H]2[C@@H](O)CCCc3cncn32)c(-c2ccccc2Cl)c1` [CSN5i-2, (5S,6S)-5-(2′-chloro-5-(((2-(methoxymethyl)phenyl)amino)methyl)-[1,1′-biphenyl]-2-yl)-6,7,8,9-tetrahydro-5H-imidazo[1,5-a]azepin-6-ol]?
EC50 (SNU-449, SNU-449): 2.13 µM; EC50 (SNU-475, SNU-475): 2.61 µM; EC50 (SNU-685): 2.09 µM; EC50 (SNU-738): 14.2 µM; EC50 (SNU-761): 0.281 µM; EC50 (SNU-1040): 26.8 µM; EC50 (SNU-1079): 0.661 µM; EC50 (SNU-C1, SNU-C1): 11.7 µM; EC50 (SNU-C2A): 5.18 µM; EC50 (SNU-C4, SNU-C4): 2.28 µM; EC50 (SNU-C5): 0.513 µM; EC50 (SR-786, SR-786): 0.515 µM; EC50 (SU-DHL10, SU-DHL-10): 0.649 µM; EC50 (SU-DHL-4, SU-DHL-4): 0.703 µM; EC50 (SU-DHL-5, SU-DHL-5): 0.161 µM; EC50 (SU-DHL-6, SU-DHL-6): 0.261 µM; EC50 (SU-DHL-8, SU-DHL-8): 0.467 µM; EC50 (SU.86.86, SU.86.86): 27 µM; EC50 (SUIT-2, SUIT-2): 2.04 µM; EC50 (SUM44PE): 17 µM; EC50 (SUM52PE): 4.06 µM; EC50 (SUM149PT): 0.883 µM; EC50 (SUM185PE): 11.2 µM; EC50 (SUM190PT): 2.95 µM; EC50 (SUP-T1, SUP-T1): 0.768 µM; EC50 (SW48, SW48): 3.24 µM; EC50 (SW480, SW480): 1.84 µM; EC50 (SW837, SW837): > 30 µM; EC50 (SW900, SW 900): 1.45 µM; EC50 (SW982, SW982): 1.38 µM; EC50 (SW1271, SW 1271): 0.766 µM; EC50 (SW1353, SW 1353): 1.37 µM; EC50 (SW1573, SW 1573): 1.07 µM; EC50 (SW1783, SW 1783): 0.358 µM; EC50 (SW-403, SW403): > 30 µM; EC50 (SW-620, SW620): 2.98 µM; EC50 (SYO-1): 0.472 µM; EC50 (Sq-1): 1.27 µM; EC50 (T3M4, T3M-4): 2.42 µM; EC50 (T47D, T-47D): 1.03 µM; EC50 (TALL-1, TALL-1): 0.639 µM; EC50 (TANOUE): 0.248 µM; EC50 (TC-71, TC-71): 1.99 µM; EC50 (TCC-PAN2): 0.817 µM; EC50 (TE-1, TE-1): 0.751 µM; EC50 (TE-6, TE-6): 1.68 µM; EC50 (TE-11, TE-11): 1.03 µM; EC50 (TE-14): 3.66 µM; EC50 (TE-15, TE-15): 0.0695 µM; EC50 (TF-1, TF-1): 2.59 µM; EC50 (THP-1, THP-1): 0.636 µM; EC50 (TT2609-C02): 1.77 µM; EC50 (TYK-nu): 0.155 µM; EC50 (U266B1): 0.485 µM; EC50 (U-87 MG): 1.19 µM; EC50 (U-118-MG, U-118 MG): 1.29 µM; EC50 (U-251, U-251 MG): 1.61 µM; EC50 (U-937, U-937): 0.354 µM; EC50 (UACC-62, UACC-62): 3.71 µM; EC50 (UACC-257, UACC-257): 0.556 µM; EC50 (UCH1, UCH-1): 0.415 µM; EC50 (UKE1, UKE1): 0.16 µM; EC50 (VM-CUB-1, VM-CUB1): 6.69 µM; EC50 (VMRC-LCD): 0.961 µM; EC50 (VMRC-RCW): 2.19 µM; EC50 (WM 266-4, WM-266-4): 1.44 µM; EC50 (WM983B, WM-983B): 1.39 µM; EC50 (WM-88): 20.1 µM; EC50 (WM-115, WM-115): 1.25 µM; EC50 (WM-1799, WM1799): 1.75 µM; EC50 (WSU-WM): 0.814 µM; EC50 (YAPC): 0.569 µM; AMAX (Hs 294T): -53.6994; AMAX (Hs 695T): -69.7728; AMAX (Hs 936.T): -84.1429; AMAX (HuG1-N): -75.3496; AMAX (HuH-7): -82.3154; AMAX (IGR-37): -80.2025; AMAX (IGROV1): -66.8455; AMAX (IPC-298): -65.2966; AMAX (Ishikawa): -71.6276; AMAX (JHH-4): -91.4689; AMAX (JHOS-2): -38.1051; AMAX (JHUEM-2): -86.9649; AMAX (JL-1): -47.9564; AMAX (JVM-2): -85.1393; AMAX (KARPAS-422): -79.6206; AMAX (KATO III): -58.0161; AMAX (KBM-7): -95.2333; AMAX (KE-97): -97.8925; AMAX (KMRC-1): -54.4009; AMAX (KP4): -68.6951; AMAX (KP-1N): -56.9313; AMAX (KP-3): -58.802; AMAX (KU-19-19): -51.5044; AMAX (KYSE-150): -49.8534; AMAX (KYSE-180): -63.0038; AMAX (Kasumi3): -93.6402; AMAX (LUDLU-1): -71.9634; AMAX (MFE-280): -66.9982; AMAX (MG-63): -59.1323; AMAX (MM138): -89.9344; AMAX (MM415): -88.4479; AMAX (MM426): -60.9162; AMAX (MM485): -69.291; AMAX (MM537): -73.4726; AMAX (MM576): -52.394; AMAX (MOLM-16): -89.6899; AMAX (MOLT-13): -95.3007; AMAX (MeWo): -53.7976; AMAX (NB-1): -92.7531; AMAX (NCI-H82): -95.3022; AMAX (NCI-H211): -68.3447; AMAX (NCI-H322): -37.8008; AMAX (NCI-H441): -64.9424; AMAX (NCI-H647): -44.0246; AMAX (NCI-H650): -44.5856; AMAX (NCI-H810): -67.8352; AMAX (NCI-H841): -78.3347; AMAX (NCI-H1155): -84.5649; AMAX (NCI-H1299): -58.5091; AMAX (NCI-H1339): -66.5268; AMAX (NCI-H1373): -65.8548; AMAX (NCI-H1568): -93.8026; AMAX (NCI-H2087): -59.3219; AMAX (NCI-H2122): -79.8003; AMAX (NCI-H2126): -18.8926; AMAX (NCI-H2172): -75.6398; AMAX (NCI-H2452): -33.7782; AMAX (NCI-N87): -47.3502; AMAX (ONCO-DG-1): -61.2577; AMAX (OUMS-23): -82.8646; AMAX (OV56): -76.0147; AMAX (P3HR-1): -76.4402; AMAX (P12-ICHIKAWA): -95.4636; AMAX (PC-3): -57.0972; AMAX (Panc 03.27): -70.0008; AMAX (Panc 10.05): -84.7778; AMAX (RT-112): -42.1113; AMAX (SEM): -97.9816; AMAX (SK-ES-1): -89.0847; AMAX (WM-88): -55.011; maximal loss of viability (other, less sensitive cell lines of the panel): 40–60%; Amax (high-concentration effect level) (some cell lines of the panel (cytotoxic)): ≤ −80%

Reference: paper PMC5078989, “Targeted inhibition of the COP9 signalosome for treatment of cancer” (Nature Communications, 2016)
